Results taken from patent US20220127297A1, “Novel Antibacterial 3"-Derivatives Of 4,6-Disubstituted 2,5-Dideoxystreptamine Aminoglycoside Antibiotics” (AGILeBiotics B.V., priority 2018, published 2022).
Values after ≈ are worked out from the molar mass of the structure shown.

Test system: clinical isolates of Vancomycin-resistant Enterococcus faecium (VRE)
Assay: MIC determination at Fidelta, clinical isolates
Type: cell-based
Outline: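 Clinical isolates and ATCC reference strains revived on MH agar, tested by broth microdilution in Mueller Hinton broth. Compounds from 5 mg/mL DMSO stocks, two-fold serial dilutions, final 64-0.125 μg/mL.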

SMILES | MIC90 (VRE-2005, Urine) [µg/mL] | MIC90 (VRE-2006, Urine) [µg/mL] | MIC90 (VRE-2007, Urine) [µg/mL] | MIC90 (VRE-2008, Urine) [µg/mL] | MIC90 (VRE-2009, Urine) [µg/mL] | MIC90 (VRE-2010, Urine) [µg/mL] | MIC90 (VRE-2011, Rectum) [µg/mL] | MIC90 (VRE-2012, Rectum) [µg/mL] | MIC90 (VRE-2013, Rectum) [µg/mL]
NCC[C@H](O)C(=O)N[C@@H]1C[C@H](N)[C@@H](O[C@H]2O[C@H](CN)[C@@H](O)[C@H](O)[C@H]2O)[C@H](O)[C@H]1O[C@H]1O[C@H](CO)[C@@H](O)[C@H](N)[C@H]1O [Amikacin, amikacin, reference compound] | > 64 | > 64 | > 64 | > 54 | > 64 | > 64 | > 64 | > 64 | > 64
N=C(NC[C@@H]1CCNC1)NC1[C@@H](O)C(OC2[C@@H](F)[C@H](O[C@H]3OC(CN)[C@@H](O)CC3N)C(N)C[C@H]2NC(=O)[C@@H](O)CCN)O[C@H](CO)[C@H]1O (stereo partly drawn) [ABX5039, Tobra-AHB-F-Gua (R) pyrrolidine-3-ylmethyl] | 4 (≈ 5.75 µM) | 16 (≈ 23 µM) | 4 (≈ 5.75 µM) | 4 (≈ 5.75 µM) | 4 (≈ 5.75 µM) | 8 (≈ 11.5 µM) | 8 (≈ 11.5 µM) | 4 (≈ 5.75 µM) | 4 (≈ 5.75 µM)
N=C(NC[C@@H]1CCCN1)NC1[C@@H](O)C(OC2[C@@H](F)[C@H](O[C@H]3OC(CN)[C@@H](O)CC3N)C(N)C[C@H]2NC(=O)[C@@H](O)CCN)O[C@H](CO)[C@H]1O (stereo partly drawn) [ABX5026, Tobra-AHB-F-Gua (S) pyrrolidine-2-yl-methyl] | 4 (≈ 5.75 µM) | 8 (≈ 11.5 µM) | 4 (≈ 5.75 µM) | 4 (≈ 5.75 µM) | 8 (≈ 11.5 µM) | 8 (≈ 11.5 µM) | 8 (≈ 11.5 µM) | 4 (≈ 5.75 µM) | 4 (≈ 5.75 µM)
N=C(N)NC1C(O)[C@@H](CO)OC(OC2C(F)[C@H](O[C@H]3OC(CN)[C@@H](O)CC3N)C(N)C[C@H]2NC(=O)[C@@H](O)CCN)[C@@H]1O (stereo partly drawn) [ABX5006, Tobra-AHB-F-Gua] | 4 (≈ 6.53 µM) | 32 (≈ 52.2 µM) | 4 (≈ 6.53 µM) | 8 (≈ 13.1 µM) | 16 (≈ 26.1 µM) | 8 (≈ 13.1 µM) | 16 (≈ 26.1 µM) | 4 (≈ 6.53 µM) | 4 (≈ 6.53 µM)
